Data published in patent publication US8901337B2, “Metal complexes having dual histone deacetylase inhibitory and DNA-binding activity” (Royal College of Surgeons in Ireland, priority 2009, dated 2014).
Read-outs that look alike come from different tables or passages of the source.

Experiments:
[1] = tested on: non-tumorigenic human dermal fibroblast cell line (NHDF); assay: MTS in vitro cytotoxicity, NHDF; type: cell-based
Description: In addition Normal Neonatal Human Dermal Fibroblast, NHDF, cells were cultured in Fibroblast Basal Medium (FBM®, Clonetics, Walkersville, USA) supplemented with hFGF-B, insulin, 5% FBS and gentamicin/amphotericin-B (FGM®-2 SingleQuots, Clonetics, Walkersville, USA).
(§1) All cells were kept in a humidified atmosphere with 5% CO2 at 37° C.; cells from confluent monolayers were removed from flasks by trypsin/EDTA solution and their viability determined by the trypan blue exclusion test.
(§2) Cell growth was determined by the [3-(4,5-dimethylthiazol-2-yl)-5-(3-carboxymethoxyphenyl)-2-(4-sulfophenyl)-2H-tetrazolium, inner salt, (MTS test, Promega, Southampton, UK), a colorimetric assay based on the ability of the viable cells to reduce a soluble yellow tetrazolium salt to blue formazan. 10,000 ovarian cancer cells or 3,000 fibroblast cells for example were seeded per well onto 96-well plates in 100 μl of the appropriate culture medium. 24 hr after sowing the cells, the media was removed and the cells were treated by adding 100 μl of the compound media solutions at the appropriate concentrations. cis-[Pt(NH3)2(malSAHA−2H)], cisplatin and cis-[Pt(NH3)2(mal)] were prepared freshly in cell culture media. […] The maximum percentage of dmso present in any well was less than 0.1% (v/v). cis-[Pt(NH3)2(malBel—2H)], belinostat and malbelinostat were freshly prepared in dimethyl formamide (DMF) and diluted in culture media prior to the MTS assay. The maximum percentage of DMF present in any well was 0.5% (v/v). A range of concentrations between 1 μM and 100 μM was used.
(§3) After 72 hr of treatment, 20 μl of the MTS reagent was added to each well and the plates incubated for 2 hr at 37° C. […] The percentages of surviving cells relative to untreated controls were determined.

[2] = tested on: ovarian cancer cell line A2780 P; assay: MTS in vitro cytotoxicity, A2780 P; type: cell-based, human
Description: (§4) Cells were cultured in the appropriate media. […] In order to retain resistance 1 μM cisplatin was added to the media of the A2780 cisR cells every third passage. A2780 cisR cells are resistant to cisplatin through a combination of decreased uptake, enhanced DNA repair/tolerance, and elevated reduced glutathione levels
as §1, §2, §3

[3] = tested on: cisplatin resistant ovarian cancer cell line A2780 cisR; assay: MTS in vitro cytotoxicity, A2780 cisR; type: cell-based, human
Description: as §4, §1, §2, §3

[4] = tested on: breast cancer cell line (SKBR); assay: MTS in vitro cytotoxicity, SKBR; type: cell-based; details: 72 hours, Table 1, read-out: IC50 values against SKBR
Description: as §1, §2, §3

CH1 (cancer cells) = assay: Cellular uptake of Pt (FAAS), CH1; type: cell-based; details: 10 μM, 72 hours treatment
Description: (§5) Cellular uptake of Pt compounds was measured in SKBR, SW480, A549, A2780P and CH1 cells. The cells were seeded in 60 mm tissue culture dishes with 10 mL of their respective medium and after overnight incubation, the cells were treated with the Pt complexes for 72 h at 10 μM concentration. The cell monolayers at the end of the incubation with the Pt complexes were washed (twice) with ice-cold phosphate buffered saline (PBS), trypsinized and harvested into cold (4° C.) PBS. Cell suspensions were centrifuged and the pellets were stored in PBS at −80° C. until assayed. Afterward, the pellets were digested by high pressure microwave mineralization and Pt content was determined by flameless atomic absorption spectrophotometry (FAAS). The results of cellular Pt uptake were corrected for adsorption effects. All experiments were made in triplicate.^17

cell line (CH1) = assay: MTS in vitro cytotoxicity, CH1; type: cell-based; details: 72 hours, Table 1, read-out: IC50 values against CH1
Description: as §1, §2, §3

[5] = tested on: DNA in CH1 cells (lymphoma); assay: Pt binding to DNA in cultured cells (ICP-MS), CH1; type: cell-based; details: 43 μM of Pt complexes, 2 hours of cell treatment
Description: (§6) Pt DNA binding of Pt complexes was measured in SW480 cells (colon cancer) and CH1 cells (lymphoma) or alternatively A2780 P and A2780 cisR cells (sensitive and resistant to cisplatin respectively). The cells were seeded in 60 mm tissue culture dishes with 10 ml of their respective medium. After overnight incubation the medium was removed and replaced with 10 ml of the respective medium containing a platinum complex giving a final concentration of 43 or 40 μM depending on the experiment. The cells were incubated with a given Pt complex for either 2 or 4 h depending on the experiment. The cells were trypsinised and centrifuged. The supernantant was removed and the cells washed twice with 1×PBS and centrifuged. The pellet was re-suspended in DNA buffer to which Proteinase K (20 mg/mL) and 10% SDS were added. After a gentle shake and incubation at 45° C. for two hours, RNAse (100 mg/mL) was added and the cells were incubated at 37° C. overnight. The volume of supernatant was noted and an equal volume of phenol was added.
The resulting mixture was shook for 10 min, then centrifuged for 10 min at 10° C. The supernatant was transferred into a new centrifuge tube (15 ml) and the volume was noted. […] The absorbance of the DNA by was measured by UV spectrophotometry at 260 nm and 280 nm and the concentration of DNA calculated. Platinum bound to DNA was determined by ICP-MS.

[6] = tested on: lung cancer cell line (A549); assay: MTS in vitro cytotoxicity, A549; type: cell-based; details: 72 hours, Table 1, read-out: IC50 values against A549
Description: as §1, §2, §3

[7] = tested on: liver cell lines (Hep-G2); assay: MTS in vitro cytotoxicity, Hep-G2; type: cell-based; details: 72 hours, Table 1, read-out: IC50 values against Hep-G2
Description: as §1, §2, §3

[8] = tested on: colon cancer cell line (SW480); assay: MTS in vitro cytotoxicity, SW480; type: cell-based; details: 72 hours, Table 1, read-out: IC50 values against SW480
Description: as §1, §2, §3

[9] = tested on: DNA in SW480 cells (colon cancer); assay: Pt binding to DNA in cultured cells (ICP-MS), SW480; type: cell-based; details: 43 μM of Pt complexes, 2 hours of cell treatment
Description: as §6
The resulting mixture was shook for 10 min, then centrifuged for 10 min at 10° C. The supernatant was transferred into a new centrifuge tube (15 ml) and the volume was noted. To this was added an equal volume of phenol and chloroform/isoamylalcohol (24:1). The resulting mixture was shook for 10 min, then centrifuged for 10 min at 10° C. (3000 RPM). The supernatant was transferred into a new centrifuge tube (15 mL) and the volume was noted. To this was added an equal volume of chloroform. The resulting mixture was shook for 10 min, then centrifuged for 10 min at 10° C. The supernatant was transferred into a new centrifuge tube (15 mL) and the volume was noted. To this was added a volume that is 1/10 of the supernatant of 3 M sodium acetate (Ph 5.2) and three times the volume of cold 100% isopropanol (from freezer). The solution was shook gently until the DNA is precipitated. […] The absorbance of the DNA by was measured by UV spectrophotometry at 260 nm and 280 nm and the concentration of DNA calculated. Platinum bound to DNA was determined by ICP-MS.

[10] = tested on: SKBR (breast cancer cells); assay: Cellular uptake of Pt (FAAS), SKBR; type: cell-based; details: 10 μM, 72 hours treatment
Description: as §5

A549 (lung cancer cells) = assay: Cellular uptake of Pt (FAAS), A549; type: cell-based; details: 10 μM, 72 hours treatment
Description: as §5

[11] = tested on: SW480 (colon cancer cells); assay: Cellular uptake of Pt (FAAS), SW480; type: cell-based; details: 10 μM, 72 hours treatment
Description: as §5

[12] = tested on: A2780 P (ovarian cancer cells); assay: Cellular uptake of Pt (FAAS), A2780 P; type: cell-based, human; details: 10 μM, 72 hours treatment
Description: as §5, with “The cells were seeded in 60 mm tissue culture dishes with 10 mL of their respective medium and after overnight incubation, the cells were treated with the Pt complexes for 72 h at 10 μM concentration.” left out

HDAC1 = molecular target: T1, HDAC1 (Homo sapiens, UniProt Q13547); assay: Cayman HDAC1 Inhibitor Screening Assay Kit (fluorescence); type: biochemical
T1 construct: purchased Cayman Chemicals, Ann Arbor, USA
Description: The assay provides a fast two-step fluorescence-based method for measuring HDAC activity. Briefly, in the first step an acetylated lysine residue was incubated with HDAC1 and potential inhibitors. Deacetylation sensitises the substrate so that treatment with the HDAC developer in the second step releases a fluorescent product. The fluorescent reaction product was analysed using a plate reader with an excitation wavelengths of 350 nm and emission wavelengths of 460 nm.

T1 sequence (Q13547 whole entry): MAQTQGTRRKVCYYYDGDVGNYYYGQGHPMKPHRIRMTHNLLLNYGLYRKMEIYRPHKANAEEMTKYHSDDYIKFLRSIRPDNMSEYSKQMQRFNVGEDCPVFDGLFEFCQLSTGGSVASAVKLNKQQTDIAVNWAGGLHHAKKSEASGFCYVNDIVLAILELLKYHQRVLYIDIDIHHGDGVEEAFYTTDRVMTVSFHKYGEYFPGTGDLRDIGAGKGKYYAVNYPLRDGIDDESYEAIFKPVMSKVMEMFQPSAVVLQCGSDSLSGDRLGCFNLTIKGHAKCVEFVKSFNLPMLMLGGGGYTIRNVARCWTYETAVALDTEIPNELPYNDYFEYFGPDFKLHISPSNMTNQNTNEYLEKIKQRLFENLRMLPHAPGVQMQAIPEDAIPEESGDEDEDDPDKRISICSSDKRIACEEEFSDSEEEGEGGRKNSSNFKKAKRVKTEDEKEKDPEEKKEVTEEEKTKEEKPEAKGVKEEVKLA

O=C(/C=C/c1ccc(S(=O)(=O)Nc2ccc(CC(C(=O)O)C(=O)O)cc2)cc1)NO [malBel]
IC50 ([1]; 72 hours, MTS, Table 5, read-out: IC50 (μM) ± S.E.M. against NHDF): 28.9 µM
IC50 ([2]; 72 hours, MTS, Table 5, read-out: IC50 (μM) ± S.E.M. against A2780P): 45.8 µM
IC50 ([3]; 72 hours, MTS, Table 5, read-out: IC50 (μM) ± S.E.M. against A2780CisR): 32.1 µM

[NH2][Pt]1([NH2])[O]C(=O)CC(=O)[O]1 [cis-[Pt(NH3)2(mal)]]
IC50 ([1]; 72 hours, MTS, Table 1, read-out: IC50 values against NHDF): 48 ± 2.2 µM
IC50 [4]: 14.6 ± 2.5 µM
Uptake of Pt complexes into CH1 (CH1 (cancer cells)): 282.6 ± 20.6 pmol Pt/2 × 10^6 cell
IC50 (cell line (CH1)): 2.5 ± 0.5 µM
DNA-bound Pt in CH1 [5]: 1.76 · 10^−15 moles of Pt/μg of DNA
IC50 [6]: 6.3 µM
IC50 [7]: 44.5 ± 0.9 µM
IC50 [8]: 23.2 ± 1.5 µM
DNA-bound Pt in SW480 [9]: 1.25 · 10^−15 moles of Pt/μg of DNA
Uptake of Pt complexes into SKBR [10]: 488.15 ± 38.4 pmol Pt/2 × 10^6 cell
Uptake of Pt complexes into A549 (A549 (lung cancer cells)): 357.1 ± 47.1 pmol Pt/2 × 10^6 cell
Uptake of Pt complexes into SW480 [11]: 127.35 ± 27.4 pmol Pt/2 × 10^6 cell
IC50 ([2]; 72 hours, MTS, Table 1, read-out: IC50 values against A2780 P): 16 ± 4.3 µM
IC50 ([3]; 72 hours, MTS, Table 1, read-out: IC50 values against A2780cisR): 81 ± 5.8 µM
Uptake of Pt complexes into A2780 P [12]: 220.95 ± 10.95 pmol Pt/2 × 10^6 cell

O=C(CCCCCCC(=O)Nc1ccc(CC(C(=O)O)C(=O)O)cc1)NO [malSAHA]
inhibition of HDAC1 (in words) (HDAC1): inhibit HDAC1
IC50 (HDAC1; at 200 μM): 0.0595 µM

O=C(/C=C/c1cccc(S(=O)(=O)Nc2ccccc2)c1)NO [belinostat, reference compound]
IC50 ([1]; Homo sapiens, NHDF, 72 h, read-out: IC50 (μM) ± S.E.M. against NHDF): 3 ± 0.5 µM
IC50 ([2]; Homo sapiens, A2780, 72 h, read-out: IC50 (μM) ± S.E.M. against A2780P): < 1 µM
IC50 ([3]; Homo sapiens, A2780cisR, 72 h, read-out: IC50 (μM) ± S.E.M. against A2780CisR): < 1 µM
